Reference: paper PMC8555866 (Nature chemical biology, 2021)
Structures can show the parent of a compound that is named as a salt.

How the values were obtained:
[1] = target: wildtype Keap1 (tag-free) (Homo sapiens, UniProt Q14145); test: Keap1 tracer saturation binding with wildtype Keap1; conditions: fixed Cora-1-KL9 (5 nM) and wildtype Keap1, one-site binding model
Keap1 (tag-free) [2] = target: T1, Keap1 (tag-free) (Homo sapiens, UniProt Q14145); test: Assay-1: inhibitor dose response, full length Keap1; format: binding; conditions: 5 nM Keap1, 3.5 nM each KL9 tracer, 4 h
Keap1 (tag-free) [3] = target: T1, Keap1 (tag-free); test: Assay-2: inhibitor dose response, full length Keap1; format: binding; conditions: for activity in Assay-2 (in words): 5 nM Cora-1-KL9, 150 nM CDDO-FITC, 5 nM Keap1
[4] = target: HDAC1-HT in HEK293T cells (Homo sapiens, UniProt Q13547); format: cell-based; conditions: Cora-2-Halo labeled HEK293T cells expressing HDAC1-HT, 4 h at 37°C
Sequence of HDAC1-HT in HEK293T cells (Q13547 whole entry): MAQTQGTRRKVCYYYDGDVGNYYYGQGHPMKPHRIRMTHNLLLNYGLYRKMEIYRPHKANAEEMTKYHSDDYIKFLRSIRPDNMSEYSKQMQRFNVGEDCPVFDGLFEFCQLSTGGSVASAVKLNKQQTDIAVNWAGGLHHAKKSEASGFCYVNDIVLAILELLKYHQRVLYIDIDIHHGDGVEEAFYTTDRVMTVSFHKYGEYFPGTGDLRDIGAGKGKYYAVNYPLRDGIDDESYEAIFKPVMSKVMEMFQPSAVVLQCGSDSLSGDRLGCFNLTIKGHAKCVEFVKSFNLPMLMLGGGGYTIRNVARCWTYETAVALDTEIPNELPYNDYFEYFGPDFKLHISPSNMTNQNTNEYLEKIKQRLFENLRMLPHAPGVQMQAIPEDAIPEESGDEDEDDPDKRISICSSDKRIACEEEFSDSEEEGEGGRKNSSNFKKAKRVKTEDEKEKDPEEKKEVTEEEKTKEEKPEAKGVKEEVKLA

T1 sequence (Q14145 whole entry): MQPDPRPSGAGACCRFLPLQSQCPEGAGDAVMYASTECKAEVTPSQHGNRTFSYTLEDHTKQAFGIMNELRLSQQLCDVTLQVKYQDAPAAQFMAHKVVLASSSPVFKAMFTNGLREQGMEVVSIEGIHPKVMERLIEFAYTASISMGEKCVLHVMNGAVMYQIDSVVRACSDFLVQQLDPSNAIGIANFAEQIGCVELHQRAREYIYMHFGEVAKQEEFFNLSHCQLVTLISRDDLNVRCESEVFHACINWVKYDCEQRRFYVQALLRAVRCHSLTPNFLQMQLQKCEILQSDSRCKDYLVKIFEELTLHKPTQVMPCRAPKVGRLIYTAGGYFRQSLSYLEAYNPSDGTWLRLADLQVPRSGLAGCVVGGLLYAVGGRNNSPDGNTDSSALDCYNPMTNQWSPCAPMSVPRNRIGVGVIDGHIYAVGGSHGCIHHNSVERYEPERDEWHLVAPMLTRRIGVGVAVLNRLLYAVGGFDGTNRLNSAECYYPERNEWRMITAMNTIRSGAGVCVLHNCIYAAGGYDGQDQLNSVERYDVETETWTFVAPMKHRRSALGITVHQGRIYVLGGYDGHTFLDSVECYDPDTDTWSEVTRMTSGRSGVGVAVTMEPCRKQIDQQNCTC
Sequence of wildtype Keap1 (tag-free) (Q14145 whole entry): as above

Row | affinity in Assay-1 (no appreciable affinity below) (Keap1 (tag-free) [2]) [µM] | activity in Assay-1 (in words) (Keap1 (tag-free) [2]) | Compound | other results
1 |  |  | CC1(C)CC[C@]2(C(=O)NCCCOCCOCCOCCCNC(=S)Nc3ccc(-c4c5ccc(=O)cc-5oc5cc(O)ccc45)c(C(=O)O)c3)CC[C@]3(C)[C@H](C(=O)C=C4[C@@]5(C)C=C(C#N)C(=O)C(C)(C)[C@@H]5CC[C@]43C)[C@@H]2C1 [CDDO-FITC] | Kd [1]: 164 ± 37.1 nM
2 | > 100 |  | Cc1sc2c(c1C)C(c1ccc(Cl)cc1)=NC(CC(=O)NCCCOCCOCCOCCCNC(=O)[C@]13CCC(C)(C)C[C@H]1[C@H]1C(=O)C=C4[C@@]5(C)C=C(C#N)C(=O)C(C)(C)[C@@H]5CC[C@@]4(C)[C@]1(C)CC3)c1nnc(C)n1-2 (some centres unmarked) [CDDO-JQ1] | fold less potent than CDDO (Keap1 (tag-free) [3]; Assay-2): > 500 fold
3 | > 100 |  | COC(=O)[C@]12CCC(C)(C)C[C@H]1[C@H]1C(=O)C=C3[C@@]4(C)C=C(C#N)C(=O)C(C)(C)[C@@H]4CC[C@@]3(C)[C@]1(C)CC2 [CDDO-Me, bardoxolone methyl] | activity in Assay-2 (in words) (Keap1 (tag-free) [3]): most potent competitors of CDDO-FITC
4 |  | micromolar activity | CC1(C)CC[C@]2(C(=O)O)CC[C@]3(C)[C@H](C(=O)C=C4[C@@]5(C)C=C(C#N)C(=O)C(C)(C)[C@@H]5CC[C@]43C)[C@@H]2C1 [CDDO] | activity in Assay-2 (in words) (Keap1 (tag-free) [3]): most potent competitors of CDDO-FITC
5 |  | micromolar activity | COC1=CC(=O)C(O)=C/C1=C\C=C\c1ccccc1 [OBT, obtusaquinone] | 
6 |  |  | O=C(CCCCCCC(=O)Nc1ccc(CNC(=O)c2ccc(C(=O)O)c(C3=c4cc5c6c(c4Oc4c3cc3c7c4CCCN7CCCC3)CCC[N+]=6CCCC5)c2)cc1)NO [SAHA-NCT] | TR-FRET signal in live cells / cell permeability (in words) [4]: specific and ligand concentration-dependent TR-FRET signal
7 | > 100 |  | COC(=O)/C=C/C(=O)OC [dimethyl fumarate] | 

Row | Compound | affinity in Assay-1 (no appreciable affinity below) (Keap1 (tag-free) [2]) [µM] | activity in Assay-1 (in words) (Keap1 (tag-free) [2]) | other results
8 | CC1=C(O)C(=O)C=C2C1=CC=C1[C@@]2(C)CC[C@@]2(C)[C@@H]3C[C@](C)(C(=O)O)CC[C@]3(C)CC[C@]12C [celastrol] |  | micromolar activity | 
